Records with an inconclusive call do not appear. Calls of active or inactive are those of the source. No rule for the calls is given here; tested in MIN6 cells.
Legend:
[1] = cell-permeable autofluorescent compounds in GFP channel, dose response, artefact control, imaging, high-content imaging (AID 2124); conditions: cells, GFP-channel autofluorescence, high-content imaging, at 10 µM; for z-score: stronger effect = higher value;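 as to cell count: cells exposed to compound for 48 hours before fixing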;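 as to z-score: cells exposed to compound for 48 hours before fixing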
[2] = tested on: cells, GFP-channel autofluorescence, high-content imaging; test: as above

Row | Structure (SMILES) | cell count [1] [cells] | EC50 [2] | z-score [1]
1 | N#CC1=C(N)C(C#N)(C#N)[C@H](c2ccoc2)[C@H]2CN(Cc3ccccc3)CC=C12 | 2630 | 10.3 µM (inactive) | 
2 | COc1ccc(/C=C2\CC/C(=C\c3ccc(OC)cc3OC)C2=O)c(OC)c1 | 3090 | 6.73 µM | 
3 | O=C1c2cccc3c(O)ccc(c23)C(=O)N1Cc1ccccc1 | 2660 | > 16 µM (inactive) | 
4 | Cc1cc2c(C(F)(F)F)cc(=O)oc2c2c1NCCC2 | 3250 | 6.77 µM | 
5 | Nc1c(C(=O)c2ccccc2)sc2nsc(SCCN3CCCC3)c12 | 2210 | 7.98 µM | 
6 | CCCN1C(=O)S/C(=C\c2ccc(N3CCOCC3)o2)C1=O | 194 | > 16 µM (inactive) | 
7 | CCCN1C(=O)/C(=C\C=C2\N(CC)c3ccccc3C2(C)C)SC1=S | 2900 | 7.93 µM | 
8 | Cc1ccc(-c2cn3nc(-c4ccccc4)c(-c4ccccc4)nc3n2)cc1 | 3200 | 6.02 µM | 
9 | Nc1ccc2c(c1)Cc1cc([N+](=O)[O-])ccc1-2 | 2910 | 4.22 µM | 
10 | Cc1nonc1NC(=O)CSc1nc2c(C)cccc2cc1C#N | 3270 | 9.41 µM | 
11 | Cc1c(-c2ccc(O)cc2)nc2nc(-c3ccccc3)c(-c3ccccc3)nn12 | 3200 | > 16 µM (inactive) | 
12 | COc1ccc(CN2C(=O)/C(=C/c3ccc(-c4ccc(Cl)c(C(=O)O)c4)o3)SC2=S)cc1 | 3020 | > 16 µM (inactive) | 
13 | CN(C)c1ccc(/C=C/C(O)=C2/C(=O)N(C)C3(C)CC2c2ccccc2O3)cc1 (stereo not drawn) | 2640 | 7.25 µM | 
14 | Cc1ccc(NS(=O)(=O)c2cc([N+](=O)[O-])ccc2N/N=C/c2sc(N3CCOCC3)nc2-c2ccccc2)c(C)c1 | 2790 | 4.45 µM | 
15 | CC(C)N1CC=C2C(C#N)=C(N)C(C#N)(C#N)C(c3ccccc3)C2C1 (stereo not drawn) | 3040 | 8.22 µM | 
16 | Cn1c(/C(C#N)=C/c2ccc(-c3ccc(S(N)(=O)=O)cc3)o2)nc2ccccc21 | 2680 | 8.08 µM | 
17 | Cc1csc(NC(=O)c2sc3nc(-c4cccs4)ccc3c2N)n1 | 2840 | 15.7 µM (inactive) | 
18 | CN(C)c1ccc(/C=C/C(=O)c2c(O)c3ccccc3oc2=O)cc1 | 3230 | > 16 µM (inactive) | 
19 | COc1ccc(C(=O)c2sc3nc(-c4ccccc4)ccc3c2N)cc1OC | 2560 | 1.87 µM | 
20 | CCCN1C=CC(=CC=C(C#N)C#N)C=C1 | 3220 | 7.84 µM | 
21 | CN1CC=C2C(C#N)=C(N)C(C#N)(C#N)C(c3cccc(Cl)c3Cl)C2C1 (stereo not drawn) | 3010 | 11.9 µM (inactive) | 
22 | CCOC(=O)CN1C(=O)S/C(=C/c2ccc(N3CCCCC3)o2)C1=O | 3180 | 7.22 µM | 
23 | O=C1S/C(=C\c2ccc(N3CCOCC3)o2)C(=O)N1c1ccccc1 | 1060 | > 16 µM (inactive) | 
24 | CCOC(=O)c1sc2cc([N+](=O)[O-])cc(SCC(C)C)c2c1N | 3070 | 1.24 µM | 
25 | C=CCN1C(=O)/C(=C/c2ccc(N(C)C)cc2)S/C1=N\c1nnc(CC)s1 | 2900 | 5.38 µM | 
26 | O=C(OCCN1C(=O)c2cccc3c(N4CCOCC4)ccc(c23)C1=O)c1ccc(Cl)cc1Cl | 1690 | 6.84 µM | 
27 | COc1cccc(C2C3CN(C)CC=C3C(C#N)=C(N)C2(C#N)C#N)c1OC (stereo not drawn) | 2400 | 7.38 µM | 

Row | Structure (SMILES) | cell count [1] [cells] | EC50 [2] | z-score [1]
28 | CN1CC=C2C(C#N)=C(N)C(C#N)(C#N)C(c3ccncc3)C2C1 (stereo not drawn) | 2850 | 14.8 µM (inactive) | 
29 | CCCNc1c(F)c(F)c2c(C)c3ccccc3nc2c1F | 3140 | 10.9 µM (inactive) | 
30 | CCN1CC=C2C(C#N)=C(N)C(C#N)(C#N)C(CCc3ccccc3)C2C1 (stereo not drawn) | 3160 | 9.3 µM | 
31 | CNC(=O)c1c(NC(=O)c2ccc(S(=O)(=O)N3CCCc4ccccc43)cc2)sc2c1CCN(C)C2 | 3190 | 8.08 µM | 
32 | CN1CC=C2C(C#N)=C(N)C(C#N)(C#N)[C@H](c3ccoc3)[C@H]2C1 | 1690 | > 16 µM (inactive) | 
33 | O=c1c(Cl)c2oc3ccccc3nc-2c2ccccc12 | 2670 | 6.42 µM | 
34 | CCCN1C(=O)S/C(=C/c2ccc(N3CCOCC3)o2)C1=O | 3210 | 5.4 µM | 
35 | CCCN1C(=O)/C(=C/c2c(NCCCOC(C)C)nc3c(C)cccn3c2=O)SC1=S | 2790 | > 16 µM (inactive) | 
36 | Cc1c2ccccc2nc2c(F)c(NC(C)C)c(F)c(F)c12 | 2550 | 9.12 µM | 
37 | CC1=C/C(=C\C=C(C#N)C#N)N(C)c2ccccc21 | 3120 | 3.23 µM | 
38 | O=C(O)c1cc(-c2ccc(/C=C3/SC(=S)N(Cc4ccccc4)C3=O)o2)ccc1Cl | 2840 | 7.47 µM | 
39 | O=C1c2cccc3c(O)ccc(c23)C(=O)N1Cc1ccco1 | 2850 | 14.6 µM (inactive) | 
40 | CC(C)N1CC=C2C(C#N)=C(N)C(C#N)(C#N)[C@H](c3ccoc3)[C@H]2C1 | 2840 | 6.74 µM | 
41 | CC(=O)c1c(N2CCOCC2)[nH]c(-c2ccccc2)nc1=S | 3510 | 1.05 µM | 
42 | CCN(CC)c1ccc2cc(/C(N)=N/NC(=O)c3cccs3)c(=O)oc2c1 | 3050 | 8.97 µM | 
43 | Cc1ccc(N2C(=O)C3C(C(=O)c4ccccc4)=NN(c4ccccc4)C3C2=O)cc1 (stereo not drawn) | 2980 | > 16 µM (inactive) | 
44 | COc1ccccc1N/C=C/c1onc(C)c1[N+](=O)[O-] | 3140 | 7.9 µM | 
45 | O=c1oc2cc(O)ccc2cc1-c1nc2c(s1)CCc1ccccc1-2 | 2720 | 7.42 µM | 
46 | COc1ccc(CN=Cc2[nH]c3ccc(Br)c(Cl)c3c2O)cc1 | 3150 | > 16 µM (inactive) | 
47 | CN1CC=C2C(C#N)=C(N)C(C#N)(C#N)[C@H](c3cccs3)[C@H]2C1 | 2820 | > 16 µM (inactive) | 
48 | COc1ccc2c(C)cc(SCC(=O)N(C)C3CCS(=O)(=O)C3)nc2c1 (stereo not drawn) | 3270 | 9.63 µM | 
49 | COc1ccc(/C=C2\C(=O)NC(=S)N2C(=O)c2ccc(F)cc2)cc1 | 2980 | > 16 µM (inactive) | 
50 | N#Cc1cccc(NC(=O)CSc2ccc3c4c(cccc24)C(=O)c2ccccc2-3)c1 | 3090 | 4.73 µM | 
51 | Cn1cc(/C=C2\SC(=S)N(NC(=O)c3ccccc3Cl)C2=O)c2ccccc21 | 3740 | 13.9 µM (inactive) | 
52 | CCCCN1C(=O)/C(=C/C=C2\N(C)c3ccccc3C2(C)C)SC1=S | 2910 | 2.65 µM | 
53 | COc1cc([C@@H]2[C@H]3CN(C)CC=C3C(C#N)=C(N)C2(C#N)C#N)cc2c1OCO2 | 3070 | 9.32 µM | 
54 | COC(=O)c1cc2c(-c3ccccc3)c(C)c3ccccn3c-2c1C(=O)OC | 2900 | 11.3 µM (inactive) | 

Row | Structure (SMILES) | cell count [1] [cells] | EC50 [2] | z-score [1]
55 | COc1cc(OC)c(-c2c3cc(O)c(=O)cc-3oc3cc(O)c(O)cc23)cc1OC | 3000 | 13.5 µM (inactive) | 
56 | CCN(CC)c1ccc2cc(C(=O)Nc3ccccn3)c(=O)oc2c1 | 3080 | 5.37 µM | 
57 | Cc1ccnc(N/C=C(\C#N)c2nc(-c3cccc(Br)c3)cs2)c1 | 2880 | 8.87 µM | 
58 | CC(=O)Nc1cccc(C(=O)/C=C/c2ccc(N(C)C)cc2)c1 | 2940 | 12 µM (inactive) | 
59 | COc1ccc2nc(SCC(C)=O)c(C#N)cc2c1 | 2490 | 7.2 µM | 
60 | Cc1c(N=C2N=C(NC(=O)c3cccs3)c3ccccc32)c(=O)n(-c2ccccc2)n1C | 2570 | 11.8 µM (inactive) | 
61 | O=C(C1=C(O)C(=O)N(c2nccs2)C1c1ccccc1)c1cc2ccccc2o1 (stereo not drawn) | 2920 | 8.55 µM | 
62 | COc1cc2c(cc1OC)C1=CC(=O)C(=O)N1C(C)(C)C2 | 2990 | 5.78 µM | 
63 | Cc1ccnc(N2C(=O)c3cccc4c([N+](=O)[O-])ccc(c34)C2=O)c1 | 350 |  | 0.09
64 | CCCCC1=CC2=C(c3ccco3)C(=O)C(C)(OC(=O)c3ccc(OC)cc3)C(=O)C2=CN1CC(C)C (stereo not drawn) | 2870 |  | -0.39 (inactive)
65 | N=c1oc2c3c4c(cc2cc1C(=O)Nc1ccccc1)CCCN4CCC3 | 3140 |  | 0.18
66 | CCOC(=O)N1CCN(S(=O)(=O)c2ccc3c(c2)oc(=O)n3C)CC1 | 2780 |  | -0.31 (inactive)
67 | O=C(O)c1cc(-c2ccncc2)nc2ccc(F)cc12 | 3070 |  | -0.39 (inactive)
68 | C=CCN1C(=O)/C(=C/c2ccc(N3CCOCC3)o2)C(=O)NC1=S | 3270 |  | -0.32 (inactive)
69 | N#C/C(=C/c1ccc(-c2ccc(S(N)(=O)=O)cc2)o1)c1nc2ccccc2s1 | 1680 |  | 1.86
70 | Nc1c(C(=O)NC2CCCC2)sc2nc(-c3cccs3)ccc12 | 2460 |  | -0.31 (inactive)
71 | Cc1ccc(-n2c(O)c(/C=N/NC(=O)C3COc4ccccc4O3)c3ccccc3c2=O)cc1 (stereo not drawn) | 2870 |  | -0.25 (inactive)
72 | Cc1noc(C)c1S(=O)(=O)N1CCC(C(=O)N2CCN(C3CCCC3)CC2)CC1 | 2760 |  | -0.33 (inactive)
73 | O=C1C=C(Nc2ccc(O)cc2)CC(c2ccco2)C1 (stereo not drawn) | 3020 |  | -0.39 (inactive)
74 | Nc1c(C(=O)c2cccs2)sc2nsc(SCCN3CCCCC3)c12 | 2930 |  | 0.3
75 | O=C(CSc1ncn[nH]1)NCc1ccccc1 | 3380 |  | -0.39 (inactive)
76 | CCC(=O)Nc1ccc2c(c1)ncn2-c1ccccc1 | 3260 |  | -0.34 (inactive)
77 | O=C1/C(=C/c2ccc(N3CCOCC3)o2)SC(=Nc2ccccc2)N1CCc1c[nH]c2ccccc12 | 192 |  | 2.67
78 | CCOC(=O)c1cnn(-c2cc(C)nc3c(-c4ccccc4)cnn23)c1N | 3280 |  | -0.39 (inactive)
79 | N#C/C(=C\C1=C(N2CCOCC2)C(=C/c2cccc([N+](=O)[O-])c2)/CC1)C(=O)Nc1ccccc1F | 2940 |  | -0.32 (inactive)

Source: PubChem BioAssay AID2124 (Sanford-Burnham Center for Chemical Genomics, 2009)
